Assay results published in patent US6506407B2, “Colon-specific drug release system” (Yamanouchi Pharmaceutical Co., Ltd., priority 1994, dated 2003).

Columns and labels:
[1] = system: contents of the cecum (enterobacteria); test: pH change of dispersion of rat cecal contents in PBS (C-PBS) with lactulose, shaken at 37° C. under anaerobic condition (Test Example 2); design: species or system SD male rat
Protocol: A 1/15 M phosphate buffer solution (NaH2PO4-Na2HPO4; pH 7.3; hereinafter referred to as PBS) was made isotonic by addition of sodium chloride and adjusted to pH 6.8 by CO2 bubbling. The contents of the cecum of an SD male rat was dispersed therein to prepare a 10 w/v % dispersion of the cecal contents in PBS (hereinafter referred to as C-PBS). To 10 ml of C-PBS was added 100 mg of lactulose, and the mixture was shaken (50 strokes/min) at 37° C. under an anaerobic condition, and the pH change was measured. As a control, the same test was conducted on no lactulose-administered C-PBS. The same test was carried out on a mixture of 30 w/v % C-PBS and lactulose. As shown in the table, the pH of the cecal contents rapidly decreases by the addition of lactulose.

[2] = pH in the cecum with time after oral lactulose aqueous solution (Test Example 3); type: in vivo, SD male rats; conditions: for pH in the cecum: oral 100 mg/rat
Protocol: SD male rats deprived of food overnight were orally given a lactulose aqueous solution (100 mg/rat), and the pH in the cecum was measured with time.

enterobacteria = test: generation of organic acid by the action of enterobacteria
[3] = system: contents of the cecum of a rat (enterobacteria); test: pH of 10 w/v % cecal contents dispersion (CPBS) with saccharide (Test Example 7); conditions: 200 mg saccharide in 20 ml 10 w/v % CPBS, 37° C.
Protocol: An isotonic phosphate buffer solution (pH: 7.3; PBS) was adjusted to pH 6.8 by CO2 bubbling. The contents of the cecum of a rat deprived of food for 24 hours was dispersed, therein to prepare a 10 w/v % dispersion of the cecal contents in PBS (CPBS). To 20 ml of CPBS was added 200 mg of a saccharide, and the mixture was shaken in a water bath at 37° C., and the pH of the CPBS was measured with time.

[4] = water solubility of saccharides and sugar alcohols
[5] = phosphorus concentration in plasma after salmon calcitonin; type: in vivo; conditions: beagle dogs in fasted condition, s.c., 50 IU/animal, versus untreated control
Protocol: The following solution was subcutaneously administered to beagle dogs in fasted condition. Blood was taken with time to determine the phosphorus concentration in plasma using Inorganic Phosphorus E-HA Test Wako (Wako Pure Chemical Industries, Ltd.).
1% Gelatin solution containing 50 IU/0.2 ml of salmon calcitonin (pH 3; 0.2 ml; 50 IU/animal)
A single tablet of the preparation obtained in Examples 21, 22 or 24 or two tablets of the preparation obtained in Example 23 was administered orally to beagle dogs together with 30 ml of water, and blood was taken with time to determine the phosphorus concentration in plasma.
A single tablet of the preparation obtained in Examples 25, 26 or 28 or two tablets of the preparation obtained in Example 27 was administered orally to beagle dogs together with 30 ml of water, and blood was taken with time to determine the phosphorus concentration in plasma.

With `OC[C@H]1O[C@@H](O[C@@H]2[C@@H](CO)OC(O)(CO)[C@H]2O)[C@H](O)[C@@H](O)[C@H]1O` (mixture of isomers) [lactulose] the “pH of C-PBS” value ([1]; 10 w/v % C-PBS 10 ml, lactulose 100 mg, 0 hr) was 6.42, the “pH of C-PBS” value ([1]; 10 w/v % C-PBS 10 ml, lactulose 100 mg, 2 hr) was 5.93 and the “pH of C-PBS” value ([1]; 10 w/v % C-PBS 10 ml, lactulose 100 mg, 4 hr) was 5.64. For the same compound, the “pH of C-PBS” value ([1]; 10 w/v % C-PBS 10 ml, lactulose 100 mg, 6 hr) was 5.41, the “pH of C-PBS” value ([1]; 10 w/v % C-PBS 10 ml, lactulose 100 mg, 8 hr) was 5.27 and the “pH of C-PBS” value ([1]; 10 w/v % C-PBS 10 ml, lactulose 100 mg, 24 hr) was 4.76. For the same compound, the “pH of C-PBS” value ([1]; 30 w/v % C-PBS and lactulose, 0 hr) was 6.42, the “pH of C-PBS” value ([1]; 30 w/v % C-PBS and lactulose, 2 hr) was 5.39 and the “pH of C-PBS” value ([1]; 30 w/v % C-PBS and lactulose, 4 hr) was 5.25. The “pH of C-PBS” value ([1]; 30 w/v % C-PBS and lactulose, 6 hr) was 5.15, the “pH of C-PBS” value ([1]; 30 w/v % C-PBS and lactulose, 8 hr) was 5.08 and the “duration of pH reduction in the cecum” value ([2]; 100 mg/animal) was 8 hours. For the same compound, the “pH in the cecum reduced to” value ([2]; 100 mg/animal, in 3 to 4 hours from the administration) was “about 5.5”, the “pH in the cecum” value ([2]; 1 hr) was 8.2 and the “pH in the cecum” value ([2]; 2 hr) was 6.8. For the same compound, the “pH in the cecum” value ([2]; 3 hr) was 6.2, the “pH in the cecum” value ([2]; 4 hr) was 5.5 and the “pH in the cecum” value ([2]; 5 hr) was 5.6. For the same compound, the “pH in the cecum” value ([2]; 6 hr) was 5.8, the “pH in the cecum” value ([2]; 7 hr) was 5.3 and the “pH in the cecum” value ([2]; rats deprived of food overnight, 0 hr) was 7.6. The “rapid generation of an organic acid by enterobacteria” value (shortened to “rapid generation of an organic acid”) (enterobacteria) was “degraded rapidly to generate an organic acid”.

For `O=C(CO)[C@@H](O)[C@H](O)[C@H](O)CO` [fructose], the “degradation by enterobacteria with organic acid generation (pH of CPBS with time)” value (from here on “degradation by enterobacteria”) [3] was “degraded by enterobacteria to generate an organic acid similarly to lactulose”, the water solubility [4] was “high” and the “rapid generation of an organic acid” value (enterobacteria) was “generate an organic acid rapidly”.

In the case of `O=C[C@H](O)[C@@H](O)[C@@H](O)[C@H](O)CO` [galactose], the “degradation by enterobacteria” value [3] is reported as “degraded by enterobacteria to generate an organic acid similarly to lactulose”, the water solubility [4] is reported as “high” and the “rapid generation of an organic acid” value (enterobacteria) is reported as “generate an organic acid rapidly”.

For `OC[C@H]1O[C@@H](O[C@H]2[C@H](O)[C@@H](O)C(O)O[C@@H]2CO)[C@H](O)[C@@H](O)[C@H]1O` (stereo partly drawn) [lactose], the “rapid generation of an organic acid” value (enterobacteria) was “no rapid generation of an organic acid”.

For `Cc1occc(=O)c1O` [maltol], the water solubility [4] was “low” and the “rapid generation of an organic acid” value (enterobacteria) was “rapid generation of an organic acid was not observed”.

With `OC[C@H]1O[C@H](O[C@H]2[C@H](O)[C@@H](O)[C@H](O)O[C@@H]2CO)[C@H](O)[C@@H](O)[C@@H]1O` [maltose] the “degradation by enterobacteria” value [3] was “degraded by enterobacteria to generate an organic acid similarly to lactulose” and the “rapid generation of an organic acid” value (enterobacteria) was “generate an organic acid rapidly”.

In the case of `OC[C@@H](O)[C@@H](O)[C@H](O)[C@H](O)CO` [mannitol], the water solubility [4] is reported as “medium” and the “rapid generation of an organic acid” value (enterobacteria) is reported as “rapid generation of an organic acid was not observed”.

For `O=C[C@H](O)[C@H](O)[C@H](O)CO` [ribose], the water solubility [4] was “low” and the “rapid generation of an organic acid” value (enterobacteria) was “no rapid generation of an organic acid”.

With `OC[C@@H](O)[C@@H](O)[C@H](O)[C@@H](O)CO` [sorbitol] the water solubility [4] was “high” and the “rapid generation of an organic acid” value (enterobacteria) was “rapid generation of an organic acid was not observed”.

With `OC[C@H]1O[C@@](CO)(O[C@H]2O[C@H](CO)[C@@H](O)[C@H](O)[C@H]2O)[C@@H](O)[C@@H]1O` [sucrose] the “degradation by enterobacteria” value [3] was “degraded by enterobacteria to generate an organic acid similarly to lactulose”, the water solubility [4] was “high” and the “rapid generation of an organic acid” value (enterobacteria) was “generate an organic acid rapidly”.

For `OC[C@@H](O)[C@H](O)[C@@H](O)CO` [xylitol], the water solubility [4] was “high” and the “rapid generation of an organic acid” value (enterobacteria) was “rapid generation of an organic acid was not observed”.

In the case of `O=C[C@H](O)[C@@H](O)[C@H](O)CO` [xylose], the water solubility [4] is reported as “high” and the “rapid generation of an organic acid” value (enterobacteria) is reported as “generate an organic acid rapidly”.

In the case of fructooligosaccharide, the “degradation by enterobacteria” value [3] is reported as “degraded by enterobacteria to generate an organic acid similarly to lactulose”.

In the case of salmon calcitonin, the “phosphorus level in plasma after subcutaneous administration” value [5] is reported as “suppressed immediately after the administration”.
